The source of these data is patent publication US20150368248A1, “2-SUBSTITUTED-6-BIARYLMETHYLAMINO-9-CYCLOPENTYL-9H-PURINE DERIVATIVES, USE THEREOF AS MEDICAMENTS, AND PHARMACEUTICAL COMPOSITIONS” (UNIVERZITA PALACKEHO V OLOMOUCI, priority 2013, published 2015).

Where two headings read alike, the source gives them in different places.

Data set [1] has as its system caspase-3/7 activity in Hep3B cell line. The experiment in a line: One-step cellular caspase-3/7 activity assay. The class given is cell-based, human. The settings on record: 24 hours, 0 nM = 1.00. How it is done: (§1) Measurements of proapoptotic properties of new compounds were based on quantification of enzymatic activities of caspases, concretely caspases-3/7. Activity of cellular caspase-3/7 was measured according to Carrasco et al., 2003, BioTechniques, 34(5): 1064-67. Briefly, Hep3B and PLC/PRF/5 cells were incubated in the densities of 10000 cells/well in a 96-well plate overnight. Next day, the compounds in appropriate concentrations were added and cells were incubated for the 24 hours. After incubation, 3× caspase-3/7 assay buffer (150 mM HEPES pH 7.4, 450 mM NaCl, 150 mM KCl, 30 mM MgCl2, 1.2 mM EGTA, 1.5% Nonidet P40, 0.3% CHAPS, 30% sucrose, 30 mM DTT, 3 mM PMSF) with 150 μM Ac-DEVD-AMC as a substrate (Sigma-Aldrich) was added to the wells and plates were incubated at […]. The caspase-3/7 activity was measured after 6 hours using Fluoroskan Ascent microplate reader (Labsystems) at 346 nm/442 nm (excitation/emission).

For data set [2], the system named is caspase-3/7 activity in PLC/PRF/5 cell line. Put plainly: One-step cellular caspase-3/7 activity assay. The conditions noted are these: 24 hours incubation, relative to 0 nM = 1.00. The class given is cell-based, human. How it is done: as §1
For data set [3], the system named is p53-regulated transcription in Arn8 cells. Put plainly: p53-dependent transcriptional activity, β-galactosidase reporter. It is filed as cell-based. The settings on record: 24 h incubation. The method, then:
Stronger anticancer activity of the compounds is enhanced by its positive impact on stability and activity of the tumour suppressor p53. To measure p53-dependent transcriptional activity, β-galactosidase activity was quantified in the melanoma cell line Arn8, which had been established using stable transfection of cells with a p53-responsive reporter construct pRGCAfoslacZ (Frebung et al., Cancer Res., 52, 1992-6976). Briefly, after 24 h incubation with the inhibitors the Arn8 cells were permeabilized with 0.3% Triton X-100 for 15 min and then 4-methylumbelliferon-β-D-galactopyranoside was added as a substrate to the final concentration of 80 μM. After 1 h the fluorescence of product 4-methylumbelliferon was measured at 355/460 nm (ex/em) with a Fluoroskan Ascent microplate reader (Labsystems). Data in Tab. 8 present that series of 2-substituted-6-biarylmethylamino-9-cyclopentyl-9H-purine derivatives show a dose-dependent activatory effect on p53-regulated transcription, with the maximum impact observed between 100 and 500 nM concentrations for most of prepared compounds (Tab. 8).

The next data set has as its system HCC-1.1 (3sp). Put plainly: MTT cytotoxicity assay (Example 30). The class given is cell-based. The conditions noted are these: Homo sapiens, 72 h; MTT, three days after drug addition; read-out: Inhibitory concentration IC50, 3sp. How it is done: (§2) Cytotoxicity of the compounds is the major property determining their anticancer effect in vivo. One of the parameters used, as the basis for cytotoxicity assays, is the metabolic activity of viable cells.
(§3) We have been using the following cell lines: HUH-7 and PLC/PRF/5 cell lines were maintained in DMEM supplemented with 10% fetal bovine serum, penicillin (100 U/ml) and streptomycin (100 μg/ml). […] HepG2 cell line was maintained in EMEM supplemented with 10% fetal bovine serum, sodium pyruvate (0.11 g/1), penicillin (100 U/ml) and streptomycin (100 μg/ml). All cell lines were cultivated at 37° C. in 5% CO2. For cytotoxicity assays, 3000 cells (10000 cells in case of HepG2 cell line) were seeded into each well of 96 well plate and the next day tested compounds were added at various concentrations in triplicates. Three days after drug addition MTT stock solution (5 mg/ml) was added into each well and incubated for 4 h. After this incubation period, produced formazan was dissolved by DMSO and final absorbance was measured at 570 nm with Synergy H4 Hybrid Multi-Mode Microplate Reader.

A further data set has as its system Hep3B. The experiment in a line: MTT cytotoxicity assay (Example 30). The class given is cell-based, human. The settings on record: MTT, three days after drug addition, read-out: Inhibitory concentration IC50, Hep3B. How it is done: as §2, §3
(Tetrazolium assays rely on reduction of a dye to a coloured formazan, in cell work by metabolically active cells.)

The subject of data set [4] is human umbilical vein endothelial cells (HUVECs). The experiment in a line: Migration scratch assay. The class given is cell-based. Details: key to Wound area: ++: open; +: partly open; 0: closed. The conditions noted are these: 24 h. The method, then: Migration assay was performed as described previously (Krystof et al., 2011, Eur J Med Chem.; 46(9):4289-94). Briefly, confluent HUVECs were scratched and immediately treated for 24 h with various doses of compounds. After incubation each well was photographed using a DP Controller system (Olympus) connected to a Olympus BX50 microscope. Migration was expressed as the proportion of pixels of the wound area in the image that were not covered by cells using “in house” software.

Data set [5] concerns human umbilical vein endothelial cells (HUVEC). The experiment in a line: HUVEC proliferation, Calcein AM. It is filed as cell-based. The conditions noted are these: read-out: Inhibitory concentration for HUVEC cells - IC50. The method, then:
Novel 2-substituted-6-biarylmethylamino-9-cyclopentyl-9H-purine derivatives were tested for their potential anti-angiogenic properties; we analyzed its influence on the proliferation (Tab. 9), migration and tube formation of human umbilical vein endothelial cells (HUVEC). Confluent HUVECs were seeded in 96-well microtiter plates to detect their proliferation for 24 or 72 h using Calcein AM solution (Invitrogen) and a Fluoroskan Ascent microplate reader (Labsystems) as described previously (Krystof et al., 2011, Eur J Med Chem. 2011 September; 46(9):4289-94).

What is called melting point is the temperature of the solid-liquid transition. For `Clc1nc(NCc2ccc(Br)nc2)c2ncn(C3CCCC3)c2n1`, the melting point lay in the range of 178 to 179 °C.
`NC1CCC(Nc2nc(NCc3ccc(-c4ccccc4O)cc3)c3ncn(C4CCCC4)c3n2)CC1` (centres unmarked) [BP17, N^2-(4-amino-cyclohexyl)-9-cyclopentyl-N^6-(2′-hydroxy-biphenyl-4-ylmethyl)-9H-purine-2,6-diamine] yielded a melting point of 168 to 170 °C. The “Relative caspase-3/7 activity in Hep3B cell line” value in data set [1] (200 nM) was found to be 0.89. Further, in data set [1] (400 nM), the “Relative caspase-3/7 activity in Hep3B cell line” value is given as 0.87. Also, the “Relative caspase-3/7 activity in Hep3B cell line” value in data set [1] (800 nM) is 0.96. Besides, in data set [1] (1600 nM), the “Relative caspase-3/7 activity in Hep3B cell line” value was 0.63. The “Relative caspase-3/7 activity in PLC/PRF/5 cell line” value in data set [2] (compound concentration 160 nM) worked out at 1.08. Also, the “Relative caspase-3/7 activity in PLC/PRF/5 cell line” value in data set [2] (compound concentration 320 nM) came out at 1.09. For the same compound, in data set [2] (compound concentration 640 nM), the “Relative caspase-3/7 activity in PLC/PRF/5 cell line” value was found to be 0.99. Also, in data set [2] (compound concentration 1280 nM), the “Relative caspase-3/7 activity in PLC/PRF/5 cell line” value was found to be 1.20. For the same compound, the “Concentration of maximum activation” value in data set [3] turned out to be 950 nM.
In turn, `Clc1nc(NCc2ccc(-n3cccn3)cc2)c2ncn(C3CCCC3)c2n1` [BP23, (2-chlor-9-cyclopentyl-9H-purine-6-yl)-(4-pyrazol-1-yl-benzyl)-amine] gave a melting point of 165 to 167 °C. Besides, the IC50 with HCC-1.1 (3sp) was 468 nM. In the data set with Hep3B (Homo sapiens, Hep3B, 72 h), the IC50 was 432 nM.
The like results for `Clc1nc(NCc2ccc(-c3cccs3)nc2)c2ncn(C3CCCC3)c2n1` [BP29, (2-chlor-9-cyclopentyl-9H-purine-6-yl)-(6-thiophen-2-yl-pyridin-3-ylmethyl)-amine] were, in that order, 111 to 114 °C, 843 nM and 792 nM.
`Clc1nc(NCc2ccc(Br)cc2)c2ncn(C3CCCC3)c2n1` [BP101, (4-bromo-benzyl)-(2-chloro-9-cyclopentyl-9H-purine-6-yl)-amine] had a melting point of 152 to 154 °C.
Same read-out and setting: the value for `CC(C)(O)CNc1nc(NCc2ccc(Br)cc2)c2ncn(C3CCCC3)c2n1` [BP114, 1-[6-(4-bromo-benzylamino)-9-cyclopentyl-9H-purine-2-ylamino]-2-methyl-propan-2-ol] was 108 to 110 °C.
`CC(C)(O)CNc1nc(NCc2ccc(-c3ccco3)cc2)c2ncn(C3CCCC3)c2n1` [BP115, 1-[9-Cyclopentyl-6-(4-furan-2-yl-benzylamino)-9H-purine-2-ylamino]-2-methyl-propan-2-ol] showed a melting point of 121 to 123 °C. Moreover, the “Relative caspase-3/7 activity in Hep3B cell line” value in data set [1] (200 nM) is 0.94. Also, the “Relative caspase-3/7 activity in Hep3B cell line” value in data set [1] (400 nM) stood at 1.05. Also, the “Relative caspase-3/7 activity in Hep3B cell line” value in data set [1] (800 nM) turned out to be 1.19. In data set [1] (1600 nM), the “Relative caspase-3/7 activity in Hep3B cell line” value is 0.81. In data set [2] (compound concentration 160 nM), the “Relative caspase-3/7 activity in PLC/PRF/5 cell line” value amounted to 1.17. The “Relative caspase-3/7 activity in PLC/PRF/5 cell line” value in data set [2] (compound concentration 320 nM) is given as 1.05. In addition, the “Relative caspase-3/7 activity in PLC/PRF/5 cell line” value in data set [2] (compound concentration 640 nM) is 0.88. Also, the “Relative caspase-3/7 activity in PLC/PRF/5 cell line” value in data set [2] (compound concentration 1280 nM) came out at 0.98. Moreover, in data set [3], the “Concentration of maximum activation” value came out at 870 nM.
In turn, `Clc1nc(NCc2ccc(-c3ccco3)nc2)c2ncn(C3CCCC3)c2n1` [BP116, (2-chloro-9-cyclopentyl-9H-purine-6-yl)-(6-furan-2-yl-pyridin-3-ylmethyl)-amine] returned a melting point of 119 to 122 °C. Besides, in the data set with HCC-1.1 (3sp), the IC50 is 371 nM. The IC50 in the data set with Hep3B (Homo sapiens, Hep3B, 72 h) was 298 nM.
For the compound `Clc1nc(NCc2ccc(-c3ccco3)cc2)c2ncn(C3CCCC3)c2n1` [BP118, (2-chloro-9-cyclopentyl-9H-purine-6-yl)-(4-furan-2-yl-benzyl)-amine], the melting point fell in the range of 135 to 137 °C.
Regarding `CCC(CO)Nc1nc(NCc2ccc(-c3ccccn3)cc2)c2ncn(C(C)C)c2n1` (centres unmarked) [CR8, reference compound], the Wound area in data set [4] (100 nM) is on record as 0; in data set [4] (1000 nM), “+”. The IC50 was more than 2000 nM in the data set on Hep3B, more than 50000 nM in data set [5] (24 h) and 610 nM in data set [5] (72 h). Besides, in data set [3], the “Concentration of maximum activation” value worked out at 1600 nM.
In the case of `Cn1cnc2c(NCc3ccccc3)nc(NCCO)nc21` [olomoucine, reference compound], the Wound area in data set [4] (100 nM) and in data set [4] (1000 nM) was 0 in each case.
With `CC[C@H](CO)Nc1nc(NCc2ccccc2)c2ncn(C(C)C)c2n1` [roscovitine, reference compound], the Wound area in data set [4] (100 nM) and in data set [4] (1000 nM) was 0 throughout. Further, the “Concentration of maximum activation” value in data set [3] is listed as more than 10000 nM.
